Data set [1] can be described thus: Thioflavin T (ThT) fibrillation assay for physical stability. The settings on record: 250 μM in 10 mM HEPES buffer, pH 7.5, 37° C., shaking 960 rpm. In kind it is physicochemical. Summed up:
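Peptide at 250 μM in 10 mM HEPES pH 7.5 with 1 μM ThT, at 37° C with 960 rpm orbital shaking. Fluorescence (ex 444/em 485 nm) read every 20 min after 10 min pre-incubation; sigmoidal fit gives lag time (t0−2τ) and kapp (1/τ). Recovery is RP-HPLC peptide in the centrifuged, 0.22 μm-filtered supernatant as % of initial.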

A further data set has as its target T1, human GLP-1 receptor (Homo sapiens, UniProt P43220).
T1 construct: expressed in transfected cells; host or cells: BHK cells (parent BHKTS13), clone FCW467-12A/KZ10-1, with CRE luciferase
Description: GLP-1 receptor potency, CRE luciferase reporter gene assay in BHK cells. The settings on record: BHK cells expressing human GLP-1 receptor, read-out: EC50 GLP-1R. It is filed as cell-based. In short, it runs like this:
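BHK cells stably expressing human GLP-1 receptor with CRE-luciferase reporter, 5×10EE3 cells/well in phenol red-free DMEM with 10 mM Hepes, 2% ovalbumin, 0.2% Pluronic F-68. Compounds at final 1×10EE-6 to 1×10EE-13 M, 3 h at 37° C; steadylite luminescence; EC50 by four-parameter fit, in pM.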
In general terms: In a reporter assay the amount or activity of a reporter protein is the signal.

Molecules are shown by their SMILES. pEC50: −log10 of the molar value. Numbered stars: 1 amine (or outer) side, 2 acyl side, 3 side chain; on linkers, the order of the positions; unused ones are H or OH. Bridge positions count the residues as written; N and C are the ends. Square brackets hold non-standard residues; d marks the D form. Side chains are listed from the residue outwards. Peptide text beside a SMILES is read from it. I, II: the chains in the order shown. * marks the point of attachment. C18 diacid = O=C(O)CCCCCCCCCCCCCCCCC(=O)*; γGlu = O=C(O)[C@H](CCC(=O)[*:2])N[*:1]; Ac4c = NC1(C(=O)O)CCC1; AEEA = NCCOCCOCC(=O)O; Aib = CC(C)(N)C(=O)O

Usually pEC50 stands for −log10 of the EC50, conventionally taken in molar units.

T1 sequence (P43220 24-463): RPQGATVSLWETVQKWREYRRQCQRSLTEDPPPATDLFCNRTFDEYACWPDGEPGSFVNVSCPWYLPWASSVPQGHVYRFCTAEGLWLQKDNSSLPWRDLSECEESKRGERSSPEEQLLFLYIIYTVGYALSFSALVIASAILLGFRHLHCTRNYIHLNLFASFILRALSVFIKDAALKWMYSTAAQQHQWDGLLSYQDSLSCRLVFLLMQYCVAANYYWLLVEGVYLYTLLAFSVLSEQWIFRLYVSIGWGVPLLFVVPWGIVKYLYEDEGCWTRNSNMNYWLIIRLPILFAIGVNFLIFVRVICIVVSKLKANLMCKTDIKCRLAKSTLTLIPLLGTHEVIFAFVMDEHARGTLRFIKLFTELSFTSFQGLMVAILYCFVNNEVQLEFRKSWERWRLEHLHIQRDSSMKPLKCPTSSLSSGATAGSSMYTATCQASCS

On to `CC(C)C[C@H](NC(=O)[C@H](Cc1ccc(O)cc1)NC(=O)[C@H](CCCCN)NC(=O)[C@H](CO)NC(=O)[C@H](CC(C)C)NC(=O)[C@H](CC(=O)O)NC(=O)[C@H](CO)NC(=O)[C@@H](NC(=O)[C@H](Cc1ccccc1)NC(=O)[C@@H](NC(=O)CNC(=O)[C@H](CCC(N)=O)NC(=O)C1(NC(=O)[C@@H](N)Cc2c[nH]cn2)CCC1)[C@@H](C)O)[C@@H](C)O)C(=O)N[C@@H](CCC(=O)O)C(=O)N[C@@H](CO)C(=O)N[C@@H](CCCNC(=N)N)C(=O)N[C@@H](CCCNC(=N)N)C(=O)N[C@@H](C)C(=O)N[C@@H](CCC(N)=O)C(=O)N[C@@H](CC(=O)O)C(=O)N[C@@H](Cc1ccccc1)C(=O)N[C@H](C(=O)N[C@@H](CCC(N)=O)C(=O)N[C@@H](Cc1c[nH]c2ccccc12)C(=O)N[C@@H](CC(C)C)C(=O)N[C@@H](CC(C)C)C(=O)N[C@@H](CCCCNC(=O)COCCOCCNC(=O)COCCOCCNC(=O)CC[C@H](NC(=O)CC[C@H](NC(=O)CC[C@H](NC(=O)CCCCCCCCCCCCCCCCC(=O)O)C(=O)O)C(=O)O)C(=O)O)C(=O)N[C@H](C(N)=O)[C@@H](C)O)C(C)C` [Example 63, N^ε28-[2-[2-[2-[[2-[2-[2-[[(4S)-4-carboxy-4-[[(4S)-4-carboxy-4-[[(4S)-4-carboxy-4-(17-carboxyheptadecanoylamino)butanoyl]amino]butanoyl]amino]butanoyl]amino]ethoxy]ethoxy]acetyl]amino]ethoxy]ethoxy]acetyl]-[Acb2,Leu10,Glu15,Leu27,Lys28]-Glucagon amide] (H-H[Ac4c]QGTFTSDLSKYLESRRAQDFVQWLLK([AEEA-AEEA-γGlu-γGlu-γGlu-C18 diacid])T-NH2; N-terminus assumed), for which, in data set [1], the THT assay Lag time (Ex. 76) is 45 h. Moreover, at human GLP-1 receptor, the pEC50 is 11.15.
For `CC(C)C[C@H](NC(=O)[C@H](Cc1ccc(O)cc1)NC(=O)[C@H](CCCCN)NC(=O)[C@H](CO)NC(=O)[C@H](CC(C)C)NC(=O)[C@H](CC(=O)O)NC(=O)[C@H](CO)NC(=O)[C@@H](NC(=O)[C@H](Cc1ccccc1)NC(=O)[C@@H](NC(=O)CNC(=O)[C@H](Cc1c[nH]cn1)NC(=O)C(C)(C)NC(=O)[C@@H](N)Cc1c[nH]cn1)[C@@H](C)O)[C@@H](C)O)C(=O)N[C@@H](CCC(=O)O)C(=O)N[C@@H](CO)C(=O)N[C@@H](CCCCN)C(=O)N[C@@H](CCCNC(=N)N)C(=O)N[C@@H](C)C(=O)N[C@@H](CCCNC(=N)N)C(=O)N[C@@H](CCC(=O)O)C(=O)N[C@@H](Cc1ccccc1)C(=O)N[C@H](C(=O)N[C@@H](CCC(N)=O)C(=O)N[C@@H](Cc1c[nH]c2ccccc12)C(=O)N[C@@H](CC(C)C)C(=O)N[C@@H](CC(C)C)C(=O)N[C@@H](CCCCNC(=O)CC[C@H](NC(=O)CC[C@H](NC(=O)COCCOCCNC(=O)COCCOCCNC(=O)CC[C@H](NC(=O)CCCCCCCCCCCCCCCCC(=O)O)C(=O)O)C(=O)O)C(=O)O)C(=O)N[C@H](C(N)=O)[C@@H](C)O)C(C)C` [Example 27, N^ε28-[(4S)-4-carboxy-4-[[(4S)-4-carboxy-4-[[2-[2-[2-[[2-[2-[2-[[(4S)-4-carboxy-4-(17-carboxyheptadecanoylamino)butanoyl]amino]ethoxy]ethoxy]acetyl]amino]ethoxy]ethoxy]acetyl]amino]butanoyl]amino]butanoyl]-[Aib2,His3,Leu10,Glu15,Lys17,Arg20,Glu21,Leu27, Lys28]-Glucagon amide] (H-H[Aib]HGTFTSDLSKYLESKRAREFVQWLLK([γGlu-γGlu-AEEA-AEEA-γGlu-C18 diacid])T-NH2; N-terminus assumed) the same measures were 42 h and 11.39.
In turn, `CC(C)C[C@H](NC(=O)[C@H](Cc1ccc(O)cc1)NC(=O)[C@H](CCCCN)NC(=O)[C@H](CO)NC(=O)[C@H](CC(C)C)NC(=O)[C@H](CC(=O)O)NC(=O)[C@H](CO)NC(=O)[C@@H](NC(=O)[C@H](Cc1ccccc1)NC(=O)[C@@H](NC(=O)CNC(=O)[C@H](CCC(N)=O)NC(=O)C(C)(C)NC(=O)[C@@H](N)Cc1c[nH]cn1)[C@@H](C)O)[C@@H](C)O)C(=O)N[C@@H](CCC(=O)O)C(=O)N[C@@H](CO)C(=O)N[C@@H](CCCNC(=N)N)C(=O)N[C@@H](CCCNC(=N)N)C(=O)N[C@@H](C)C(=O)N[C@@H](CCCNC(=N)N)C(=O)N[C@@H](CCC(=O)O)C(=O)N[C@@H](Cc1ccccc1)C(=O)N[C@H](C(=O)N[C@@H](CCC(N)=O)C(=O)N[C@@H](Cc1c[nH]c2ccccc12)C(=O)N[C@@H](CC(C)C)C(=O)N[C@@H](CC(C)C)C(=O)N[C@@H](CCCCNC(=O)CC[C@H](NC(=O)CC[C@H](NC(=O)[C@H](CO)NC(=O)[C@H](CCC(=O)O)NC(=O)[C@H](CO)NC(=O)CC[C@H](NC(=O)CC[C@H](NC(=O)CCCCCCCCCCCCCCCCC(=O)O)C(=O)O)C(=O)O)C(=O)O)C(=O)O)C(=O)N[C@H](C(N)=O)[C@@H](C)O)C(C)C` [Example 67, N^ε28-[(4S)-4-carboxy-4-[[(4S)-4-carboxy-4-[[(2S)-2-[[(2S)-4-carboxy-2-[[(2S)-2-[[(4S)-4-carboxy-4-[[(4S)-4-carboxy-4-(17-carboxyheptadecanoylamino)butanoyl]amino]butanoyl]amino]-3-hydroxypropanoyl]amino]butanoyl]amino]-3-hydroxypropanoyl]amino]butanoyl]amino]butanoyl]-[Aib2,Leu10,Glu15,Arg20,Glu21,Leu27,Lys28]-Glucagon amide] (H-H[Aib]QGTFTSDLSKYLESRRAREFVQWLLK([γGlu-γGlu-Ser-Glu-Ser-γGlu-γGlu-C18 diacid])T-NH2; N-terminus assumed) registered a THT assay Lag time (Ex. 76) in data set [1] of 45 h. Besides, at human GLP-1 receptor, the pEC50 was 11.40.
The like results for `CC(C)C[C@H](NC(=O)[C@H](Cc1ccc(O)cc1)NC(=O)[C@H](CCCCN)NC(=O)[C@H](CO)NC(=O)[C@H](CC(C)C)NC(=O)[C@H](CC(=O)O)NC(=O)[C@H](CO)NC(=O)[C@@H](NC(=O)[C@H](Cc1ccccc1)NC(=O)[C@@H](NC(=O)CNC(=O)[C@H](CCC(N)=O)NC(=O)C(C)(C)NC(=O)[C@@H](N)Cc1c[nH]cn1)[C@@H](C)O)[C@@H](C)O)C(=O)N[C@@H](CCC(=O)O)C(=O)N[C@@H](CO)C(=O)N[C@@H](CCCNC(=N)N)C(=O)N[C@@H](CCCNC(=N)N)C(=O)N[C@@H](C)C(=O)N[C@@H](CCCNC(=N)N)C(=O)N[C@@H](CCC(=O)O)C(=O)N[C@@H](Cc1ccccc1)C(=O)N[C@H](C(=O)N[C@@H](CCC(N)=O)C(=O)N[C@@H](Cc1c[nH]c2ccccc12)C(=O)N[C@@H](CC(C)C)C(=O)N[C@@H](CC(C)C)C(=O)N[C@@H](CCCCNC(=O)CC[C@H](NC(=O)CC[C@H](NC(=O)COCCOCCNC(=O)COCCOCCNC(=O)CC[C@H](NC(=O)CCCCCCCCCCCCCCCCC(=O)O)C(=O)O)C(=O)O)C(=O)O)C(=O)N[C@H](C(N)=O)[C@@H](C)O)C(C)C` [Example 23, N^ε28-[(4S)-4-carboxy-4-[[(4S)-4-carboxy-4-[[2-[2-[2-[[2-[2-[2-[[(4S)-4-carboxy-4-(17-carboxyheptadecanoylamino)butanoyl]amino]ethoxy]ethoxy]acetyl]amino]ethoxy]ethoxy]acetyl]amino]butanoyl]amino]butanoyl]-[Aib2,Leu10,Glu15,Arg20,Glu21,Leu27,Lys28]-Glucagon amide] (H-H[Aib]QGTFTSDLSKYLESRRAREFVQWLLK([γGlu-γGlu-AEEA-AEEA-γGlu-C18 diacid])T-NH2; N-terminus assumed) were, in that order, 45 h and 10.66.
In the case of `CC(C)C[C@H](NC(=O)[C@H](CC(=O)O)NC(=O)[C@H](CC(C)C)NC(=O)[C@H](Cc1ccc(O)cc1)NC(=O)[C@H](CCCCN)NC(=O)[C@H](CO)NC(=O)[C@H](CC(C)C)NC(=O)[C@H](CC(=O)O)NC(=O)[C@H](CO)NC(=O)[C@@H](NC(=O)[C@H](Cc1ccccc1)NC(=O)[C@@H](NC(=O)CNC(=O)[C@H](CCC(N)=O)NC(=O)C1(NC(=O)[C@@H](N)Cc2c[nH]cn2)CCC1)[C@@H](C)O)[C@@H](C)O)C(=O)N[C@@H](CCCCN)C(=O)N[C@@H](CCCNC(=N)N)C(=O)N[C@@H](C)C(=O)N[C@@H](CCCNC(=N)N)C(=O)N[C@@H](CCC(=O)O)C(=O)N[C@@H](Cc1ccccc1)C(=O)N[C@H](C(=O)N[C@@H](CCC(N)=O)C(=O)N[C@@H](Cc1c[nH]c2ccccc12)C(=O)N[C@@H](CC(C)C)C(=O)N[C@@H](CC(C)C)C(=O)N[C@@H](CCCCNC(=O)CNC(=O)[C@H](CO)NC(=O)[C@H](CCC(=O)O)NC(=O)CNC(=O)[C@H](CO)NC(=O)CC[C@H](NC(=O)CC[C@H](NC(=O)CCCCCCCCCCCCCCCCC(=O)O)C(=O)O)C(=O)O)C(=O)N[C@H](C(N)=O)[C@@H](C)O)C(C)C` [Example 48] (I: H-H[Ac4c]QGTFTSDLSKYLDLKRAREFVQWLLKT-NH2 / II: {C18 diacid-γGlu-γGlu}-SGESG; amide I:28-II:C; N-terminus assumed), the THT assay Lag time (Ex. 76) in data set [1] was found to be 45 h. In addition, the pEC50 on human GLP-1 receptor was 10.36.

The values are drawn from patent publication US9474790B2, “Stable, protracted GLP-1/glucagon receptor co-agonists for medical use” (Novo Nordisk A/S, priority 2013, dated 2016).
